In the NIST ThermoML archive (doi:10.1016/j.tca.2019.178383):
± gives the expanded uncertainty stated by the source.

Assay: xn = mol fraction of the nth substance listed
Conditions: for surface tension liquid-gas: Maximal bubble pressure; for mass density: 100 kPa, Liquid, Vibrating tube method

CCn1cc[n+](CCOC)c1.O=S(=O)([O-])C(F)(F)F + CC(C)O
surface tension liquid-gas (288.15 K, x1 = 0.0997): 21.4 ± 1.5 mN/m | surface tension liquid-gas (288.15 K, x1 = 0.2004): 22.3 ± 1.5 mN/m | surface tension liquid-gas (288.15 K, x1 = 0.3004): 23.8 ± 1.5 mN/m | surface tension liquid-gas (288.15 K, x1 = 0.4003): 25.5 ± 1.5 mN/m | surface tension liquid-gas (288.15 K, x1 = 0.5004): 27.2 ± 1.5 mN/m | surface tension liquid-gas (288.15 K, x1 = 0.6008): 28.9 ± 1.5 mN/m | surface tension liquid-gas (288.15 K, x1 = 0.7): 30.8 ± 1.5 mN/m | surface tension liquid-gas (288.15 K, x1 = 0.7998): 32.8 ± 1.5 mN/m | surface tension liquid-gas (288.15 K, x1 = 0.9003): 34.5 ± 1.5 mN/m | surface tension liquid-gas (288.15 K, x1 = 1): 36.3 ± 1.5 mN/m | mass density (288.15 K, x1 = 0.0997): 929.227 ± 2.7 kg/m3 | mass density (288.15 K, x1 = 0.2004): 1030.66 ± 2.2 kg/m3 | mass density (288.15 K, x1 = 0.3004): 1105.98 ± 1.9 kg/m3 | mass density (288.15 K, x1 = 0.4003): 1163.83 ± 1.7 kg/m3 | mass density (288.15 K, x1 = 0.5004): 1210.18 ± 1.6 kg/m3 | mass density (288.15 K, x1 = 0.6008): 1248.32 ± 1.5 kg/m3 | mass density (288.15 K, x1 = 0.7): 1279.5 ± 1.5 kg/m3 | mass density (288.15 K, x1 = 0.7998): 1306.12 ± 1.4 kg/m3 | mass density (288.15 K, x1 = 0.9003): 1329.28 ± 1.4 kg/m3 | mass density (288.15 K, x1 = 1): 1348.94 ± 1.4 kg/m3 | surface tension liquid-gas (293.15 K, x1 = 0.0997): 21.1 ± 1.5 mN/m | surface tension liquid-gas (293.15 K, x1 = 0.2004): 22 ± 1.5 mN/m | surface tension liquid-gas (293.15 K, x1 = 0.3004): 23.6 ± 1.5 mN/m | surface tension liquid-gas (293.15 K, x1 = 0.4003): 25.3 ± 1.5 mN/m | surface tension liquid-gas (293.15 K, x1 = 0.5004): 27 ± 1.5 mN/m | surface tension liquid-gas (293.15 K, x1 = 0.6008): 28.6 ± 1.5 mN/m | surface tension liquid-gas (293.15 K, x1 = 0.7): 30.6 ± 1.5 mN/m | surface tension liquid-gas (293.15 K, x1 = 0.7998): 32.6 ± 1.5 mN/m | surface tension liquid-gas (293.15 K, x1 = 0.9003): 34.3 ± 1.5 mN/m | surface tension liquid-gas (293.15 K, x1 = 1): 36.1 ± 1.5 mN/m | mass density (293.15 K, x1 = 0.0997): 925.015 ± 2.7 kg/m3 | mass density (293.15 K, x1 = 0.2004): 1026.4 ± 2.2 kg/m3 | mass density (293.15 K, x1 = 0.3004): 1101.69 ± 1.9 kg/m3 | mass density (293.15 K, x1 = 0.4003): 1159.55 ± 1.7 kg/m3 | mass density (293.15 K, x1 = 0.5004): 1205.9 ± 1.6 kg/m3 | mass density (293.15 K, x1 = 0.6008): 1244.05 ± 1.5 kg/m3 | mass density (293.15 K, x1 = 0.7): 1275.23 ± 1.5 kg/m3 | mass density (293.15 K, x1 = 0.7998): 1301.86 ± 1.4 kg/m3 | mass density (293.15 K, x1 = 0.9003): 1325.01 ± 1.4 kg/m3 | mass density (293.15 K, x1 = 1): 1344.66 ± 1.4 kg/m3 | surface tension liquid-gas (298.15 K, x1 = 0.0997): 20.7 ± 1.5 mN/m | surface tension liquid-gas (298.15 K, x1 = 0.2004): 21.7 ± 1.5 mN/m | surface tension liquid-gas (298.15 K, x1 = 0.3004): 23.3 ± 1.5 mN/m | surface tension liquid-gas (298.15 K, x1 = 0.4003): 25 ± 1.5 mN/m | surface tension liquid-gas (298.15 K, x1 = 0.5004): 26.7 ± 1.5 mN/m | surface tension liquid-gas (298.15 K, x1 = 0.6008): 28.4 ± 1.5 mN/m | surface tension liquid-gas (298.15 K, x1 = 0.7): 30.4 ± 1.5 mN/m | surface tension liquid-gas (298.15 K, x1 = 0.7998): 32.3 ± 1.5 mN/m | surface tension liquid-gas (298.15 K, x1 = 0.9003): 34.1 ± 1.5 mN/m | surface tension liquid-gas (298.15 K, x1 = 1): 35.8 ± 1.5 mN/m | mass density (298.15 K, x1 = 0.0997): 920.772 ± 2.7 kg/m3 | mass density (298.15 K, x1 = 0.2004): 1022.12 ± 2.2 kg/m3 | mass density (298.15 K, x1 = 0.3004): 1097.4 ± 1.9 kg/m3 | mass density (298.15 K, x1 = 0.4003): 1155.27 ± 1.7 kg/m3 | mass density (298.15 K, x1 = 0.5004): 1201.63 ± 1.6 kg/m3 | mass density (298.15 K, x1 = 0.6008): 1239.8 ± 1.5 kg/m3 | mass density (298.15 K, x1 = 0.7): 1270.99 ± 1.5 kg/m3 | mass density (298.15 K, x1 = 0.7998): 1297.61 ± 1.4 kg/m3 | mass density (298.15 K, x1 = 0.9003): 1320.76 ± 1.4 kg/m3 | mass density (298.15 K, x1 = 1): 1340.41 ± 1.4 kg/m3 | surface tension liquid-gas (303.15 K, x1 = 0.0997): 20.3 ± 1.5 mN/m | surface tension liquid-gas (303.15 K, x1 = 0.2004): 21.5 ± 1.5 mN/m | surface tension liquid-gas (303.15 K, x1 = 0.3004): 23.1 ± 1.5 mN/m | surface tension liquid-gas (303.15 K, x1 = 0.4003): 24.8 ± 1.5 mN/m | surface tension liquid-gas (303.15 K, x1 = 0.5004): 26.5 ± 1.5 mN/m | surface tension liquid-gas (303.15 K, x1 = 0.6008): 28.2 ± 1.5 mN/m | surface tension liquid-gas (303.15 K, x1 = 0.7): 30.1 ± 1.5 mN/m | surface tension liquid-gas (303.15 K, x1 = 0.7998): 32.1 ± 1.5 mN/m | surface tension liquid-gas (303.15 K, x1 = 0.9003): 33.9 ± 1.5 mN/m | surface tension liquid-gas (303.15 K, x1 = 1): 35.5 ± 1.5 mN/m | mass density (303.15 K, x1 = 0.0997): 916.497 ± 2.7 kg/m3 | mass density (303.15 K, x1 = 0.2004): 1017.82 ± 2.2 kg/m3 | mass density (303.15 K, x1 = 0.3004): 1093.11 ± 1.9 kg/m3 | mass density (303.15 K, x1 = 0.4003): 1150.99 ± 1.7 kg/m3 | mass density (303.15 K, x1 = 0.5004): 1197.38 ± 1.6 kg/m3 | mass density (303.15 K, x1 = 0.6008): 1235.56 ± 1.5 kg/m3 | mass density (303.15 K, x1 = 0.7): 1266.76 ± 1.5 kg/m3 | mass density (303.15 K, x1 = 0.7998): 1293.38 ± 1.4 kg/m3 | mass density (303.15 K, x1 = 0.9003): 1316.53 ± 1.4 kg/m3 | mass density (303.15 K, x1 = 1): 1336.17 ± 1.4 kg/m3 | surface tension liquid-gas (308.15 K, x1 = 0.0997): 20 ± 1.5 mN/m | surface tension liquid-gas (308.15 K, x1 = 0.2004): 21.2 ± 1.5 mN/m | surface tension liquid-gas (308.15 K, x1 = 0.3004): 22.8 ± 1.5 mN/m | surface tension liquid-gas (308.15 K, x1 = 0.4003): 24.6 ± 1.5 mN/m | surface tension liquid-gas (308.15 K, x1 = 0.5004): 26.3 ± 1.5 mN/m | surface tension liquid-gas (308.15 K, x1 = 0.6008): 28 ± 1.5 mN/m | surface tension liquid-gas (308.15 K, x1 = 0.7): 29.8 ± 1.5 mN/m | surface tension liquid-gas (308.15 K, x1 = 0.7998): 31.9 ± 1.5 mN/m | surface tension liquid-gas (308.15 K, x1 = 0.9003): 33.6 ± 1.5 mN/m | surface tension liquid-gas (308.15 K, x1 = 1): 35.3 ± 1.5 mN/m | mass density (308.15 K, x1 = 0.0997): 912.188 ± 2.7 kg/m3 | mass density (308.15 K, x1 = 0.2004): 1013.52 ± 2.2 kg/m3 | mass density (308.15 K, x1 = 0.3004): 1088.82 ± 1.9 kg/m3 | mass density (308.15 K, x1 = 0.4003): 1146.73 ± 1.7 kg/m3 | mass density (308.15 K, x1 = 0.5004): 1193.13 ± 1.6 kg/m3 | mass density (308.15 K, x1 = 0.6008): 1231.33 ± 1.5 kg/m3 | mass density (308.15 K, x1 = 0.7): 1262.54 ± 1.4 kg/m3 | mass density (308.15 K, x1 = 0.7998): 1289.17 ± 1.4 kg/m3 | mass density (308.15 K, x1 = 0.9003): 1312.32 ± 1.4 kg/m3 | mass density (308.15 K, x1 = 1): 1331.96 ± 1.4 kg/m3 | surface tension liquid-gas (313.15 K, x1 = 0.0997): 19.7 ± 1.5 mN/m | surface tension liquid-gas (313.15 K, x1 = 0.2004): 21 ± 1.5 mN/m | surface tension liquid-gas (313.15 K, x1 = 0.3004): 22.6 ± 1.5 mN/m | surface tension liquid-gas (313.15 K, x1 = 0.4003): 24.4 ± 1.5 mN/m | surface tension liquid-gas (313.15 K, x1 = 0.5004): 26.1 ± 1.5 mN/m | surface tension liquid-gas (313.15 K, x1 = 0.6008): 27.8 ± 1.5 mN/m | surface tension liquid-gas (313.15 K, x1 = 0.7): 29.6 ± 1.5 mN/m | surface tension liquid-gas (313.15 K, x1 = 0.7998): 31.7 ± 1.5 mN/m | surface tension liquid-gas (313.15 K, x1 = 0.9003): 33.3 ± 1.5 mN/m | surface tension liquid-gas (313.15 K, x1 = 1): 35.1 ± 1.5 mN/m | mass density (313.15 K, x1 = 0.0997): 907.842 ± 2.7 kg/m3 | mass density (313.15 K, x1 = 0.2004): 1009.19 ± 2.2 kg/m3 | mass density (313.15 K, x1 = 0.3004): 1084.53 ± 1.9 kg/m3 | mass density (313.15 K, x1 = 0.4003): 1142.47 ± 1.7 kg/m3 | mass density (313.15 K, x1 = 0.5004): 1188.9 ± 1.6 kg/m3 | mass density (313.15 K, x1 = 0.6008): 1227.11 ± 1.5 kg/m3 | mass density (313.15 K, x1 = 0.7): 1258.34 ± 1.4 kg/m3 | mass density (313.15 K, x1 = 0.7998): 1284.98 ± 1.4 kg/m3 | mass density (313.15 K, x1 = 0.9003): 1308.13 ± 1.4 kg/m3 | mass density (313.15 K, x1 = 1): 1327.77 ± 1.4 kg/m3 | surface tension liquid-gas (318.15 K, x1 = 0.0997): 19.4 ± 1.5 mN/m | surface tension liquid-gas (318.15 K, x1 = 0.2004): 20.7 ± 1.5 mN/m | surface tension liquid-gas (318.15 K, x1 = 0.3004): 22.4 ± 1.5 mN/m | surface tension liquid-gas (318.15 K, x1 = 0.4003): 24.2 ± 1.5 mN/m | surface tension liquid-gas (318.15 K, x1 = 0.5004): 25.9 ± 1.5 mN/m | surface tension liquid-gas (318.15 K, x1 = 0.6008): 27.6 ± 1.5 mN/m | surface tension liquid-gas (318.15 K, x1 = 0.7): 29.4 ± 1.5 mN/m | surface tension liquid-gas (318.15 K, x1 = 0.7998): 31.5 ± 1.5 mN/m | surface tension liquid-gas (318.15 K, x1 = 0.9003): 33.1 ± 1.5 mN/m | surface tension liquid-gas (318.15 K, x1 = 1): 34.9 ± 1.5 mN/m | mass density (318.15 K, x1 = 0.0997): 903.442 ± 2.7 kg/m3 | mass density (318.15 K, x1 = 0.2004): 1004.85 ± 2.2 kg/m3 | mass density (318.15 K, x1 = 0.3004): 1080.23 ± 1.9 kg/m3 | mass density (318.15 K, x1 = 0.4003): 1138.22 ± 1.7 kg/m3 | mass density (318.15 K, x1 = 0.5004): 1184.68 ± 1.6 kg/m3 | mass density (318.15 K, x1 = 0.6008): 1222.91 ± 1.5 kg/m3 | mass density (318.15 K, x1 = 0.7): 1254.16 ± 1.4 kg/m3 | mass density (318.15 K, x1 = 0.7998): 1280.8 ± 1.4 kg/m3 | mass density (318.15 K, x1 = 0.9003): 1303.96 ± 1.4 kg/m3 | mass density (318.15 K, x1 = 1): 1323.6 ± 1.4 kg/m3
